# Source: PubChem BioAssay (NCI)
# “And” between values parts separate entries of the source, which are not always exact repeats. Identical values can stand only once.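 Method: 48-hour compound exposure of cells in 96-well plates, five concentrations, linear interpolation of endpoints. GI50 marks 50% less growth. Definition used: TGI = concentration required for complete inhibition of growth.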
# System: MDA-MB-468 breast
# Experiment: inhibition of tumour cell growth, NCI panel, 48 h
SMILES,GI50 [µM],TGI
COc1cc(C2c3cc4c(cc3OC(C)(N3CCCC3)C2C)OCO4)cc(OC)c1OC (centres undefined),0.419,31.2 µM
CCN1C(=O)c2ccc3c4c(ccc(c24)C1=O)C(=O)N(CCCNCc1ccccc1OC)C3=O,0.326,1.3 µM
O=C(NC(=O)c1c(F)cccc1F)Nc1cccc(Oc2ncc(Cl)cn2)c1,7.78,> 100 µM
C=C1c2c(C)nn(-c3ccc(C#CCOC4OC(CO)C(O)C(O)C4O)cc3)c2N(C)C23C[C@H]1C1(C)c4c(C)nn(-c5ccc(C#CCOC6OC(CO)C(O)C(O)C6O)cc5)c4N(C)C(C)(C[C@H]12)C3 (some centres undefined),1.34,2.73 µM
O=C(/C=C/c1ccccc1)Nc1ncc(Cc2ccccc2Cl)s1,0.37,> 71.5 µM
CC1(C)N=C(N)N=C(N)N1c1ccc(CCC(=O)Nc2ccc(S(=O)(=O)F)cc2)c(Cl)c1,0.864,> 100 µM
O=C(Oc1ccc[nH]c1=O)c1cc([N+](=O)[O-])cc([N+](=O)[O-])c1,> 100,> 100 µM
O=c1[nH]c2ccccc2cc1-c1nc2ccc(Cl)cc2[nH]1,3.26,> 100 µM
C=C(C)[C@@H]1CC[C@]2(COCCCN)CC[C@]3(C)[C@H](CC[C@@H]4[C@@](C)(CCCNCCCN)[C@H](C(=C)C)CC[C@]43C)[C@@H]12,1.87,3.75 µM
COc1cc(Nc2ncccc2C(=O)Nc2nc3ccc(F)cc3s2)cc(OC)c1OC,1.22,8.85 µM
COc1ccc2c(c1)NC1=C(C(=O)OC1)C2c1cc(OC)c(OC)c(OC)c1 (centres undefined),< 0.01,< 0.01 µM
COC(=O)c1ccc2[nH]c(O)c(C(=Nc3ccc(N(C)C(=O)CN4CCN(C)CC4)cc3)c3ccc4c(c3)OCO4)c2c1,0.84,2.38 µM
Cc1nnc(-c2ccc(C)c(-c3ccc(C(=O)Nc4cccc(C#N)c4)cc3)c2)o1,8.65,> 25 µM
CCOc1cc(C(C)(C)C)ccc1C1=N[C@H](c2ccc(Cl)cc2)[C@H](c2ccc(Cl)cc2)N1C(=O)N1CCN(CC#Cc2cccc3c2CN([C@@H]2CCC(=O)NC2=O)C3=O)CC1,0.0321,> 100 µM
CCCCCCCCn1ccc2cc(NC(=O)Cn3cc(CN4CCCCCC4)nn3)ccc21,1.65,3.33 µM
CCCC(C)c1ccc(OCCCCCCN2CCNCC2)cc1 (centres undefined),1.71,3.49 µM

SMILES,GI50 [µM],TGI
NC(CSC(c1ccccc1)(c1ccccc1)c1ccccc1)C(=O)NCC(=O)O (centres undefined),2.88,17.7 µM
CN(c1ccc(NC(=O)Nc2c(Cl)cccc2Cl)cc1)c1ccnc(Nc2cccc(CS(C)(=O)=O)c2)n1,1.11,6.44 µM
C=CC(=O)N1CCC(Oc2cc3c(Nc4ccc(Cl)c(Cl)c4F)ncnc3cc2OC)CC1,< 0.001,< 0.01 µM and 0.0199 µM
Nc1n[nH]c2cccc(C#Cc3cccc(NC(=O)c4cccc(C(F)(F)F)c4)c3)c12,9.71,28.2 µM
CCCOC(=O)N[C@H]1CCc2c(Cl)c(OC)c(OC)c(OC)c2-c2ccc(SC)c(=O)cc21,< 0.01,16.3 µM
O=C1C=CC(=O)C2C1C1(Cl)C(Cl)=C(Cl)C2(Cl)C1(Cl)Cl (centres undefined),3.29,11.3 µM
CCOc1cccc(/C=N/NC(=O)c2cccc(Nc3ccnc(C(F)(F)F)c3)c2)c1O,0.327,> 100 µM
COc1cccc2c1C(=N)c1c(O)c3c(c(O)c1C2=O)C[C@@](O)(C(C)=O)C[C@@H]3O[C@H]1C[C@H](N)[C@H](O)[C@H](C)O1,0.278,1.28 µM
CCN(CC)CCNC(Cc1ccccc1)c1ccc(OCc2ccccc2)cc1 (centres undefined),4.24,18.3 µM
CN(C)C/C=C/C(=O)Nc1ccc(C(=O)N[C@@]2(C)CCC[C@@H](Nc3ncc(Cl)c(-c4c[nH]c5ccccc45)n3)C2)nc1,0.0108,0.0352 µM
CC/C=C\C[C@H]1CC=C2C(=O)C=C[C@@H]2CC=CCCCC(=O)O[C@@H](CCCCC)CC=C2C(=O)C=C[C@@H]2CC=CCCCC(=O)O[C@@H](CCCCC)CC=C2C(=O)C=C[C@@H]2CC=CCCCC(=O)O[C@@H](CCCCC)CC=C2C(=O)C=C[C@@H]2CC=CCCCC(=O)O1,1.7,4.22 µM
Cc1cn(-c2cc(NC(=O)c3cccc(C#Cc4cccc5[nH]nc(N)c45)c3)cc(C(F)(F)F)c2)cn1,17.1,> 100 µM
O=C(O)c1ccc(CN2CCC(CN[C@@H]3C[C@H]3c3ccccc3)CC2)cc1,> 100,> 100 µM
Nc1ncc(-c2cnn(C3CCNCC3)c2)cc1-c1nc2cc(Cl)ccc2o1,1.65,3.29 µM
O=C1NC(=S)S/C1=C/c1ccc2c(c1)OCO2,> 100,> 100 µM
CS(=O)(=O)CCNCc1coc(-c2ccc3ncnc(Nc4ccc(OCc5ccccc5)cc4)c3c2)c1,0.543,3.8 µM
